Where a name gives a salt, the structure may show the parent alone.

Experiment [1] concerns RS4;11 leukaemia tumour line. Nature of the experiment: In vitro cytotoxicity, Microculture Tetrazolium Assay (MTT). The note with it: Homo sapiens; RS4;11 cells, 48 hours exposure. The experiment is classed as cell-based. As to the method: The cytotoxicity studies were carried out on the RS4;11 leukaemia tumour line.
The cells are distributed onto microplates and exposed to the test compounds for 48 hours. The cell viability is then quantified by a colorimetric assay, the Microculture Tetrazolium Assay (Cancer Res., 1987, 47, 939-942).

In a further experiment the target is Bcl-2 protein (histag-Bcl-2, UniProtKB P10415) (Homo sapiens (Human), UniProt P10415). Put plainly: Inhibition of Bcl-2 by the fluorescence polarisation technique. It is filed as binding. Conditions: fluorescence polarisation test; method A, or method B where underlined (underlining not visible); read-out: IC50 (nM) Bcl-2 FP. An excerpt:
Inhibition of Bcl-2 by the fluorescence polarisation technique
In general terms: In fluorescence polarisation assays a small probe gives low polarisation when free and higher when bound to something large.

Chain of Bcl-2 protein (P10415 whole entry): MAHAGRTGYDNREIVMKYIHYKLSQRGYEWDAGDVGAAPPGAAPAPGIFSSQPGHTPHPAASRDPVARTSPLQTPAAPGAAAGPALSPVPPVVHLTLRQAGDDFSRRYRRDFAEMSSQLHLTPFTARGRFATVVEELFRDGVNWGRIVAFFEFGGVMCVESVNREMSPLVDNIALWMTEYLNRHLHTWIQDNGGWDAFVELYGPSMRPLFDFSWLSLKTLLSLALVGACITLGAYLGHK

As a reminder, the IC50 is the concentration needed to halve the response being measured. On to `NC[C@@H]1Cc2ccccc2CN1C(=O)c1cc(N)ccc1-n1nc(C(=O)N(c2ccccc2)c2ccccc2)c2ccccc21` [Example 138, 1-{4-Amino-2-[(3S)-3-(aminomethyl)-1,2,3,4-tetrahydroisoquinoline-2-carbonyl]phenyl}-N,N-diphenyl-1H-indazole-3-carboxamide], for which the IC50 in experiment [1] was 2020 nM; at Bcl-2 protein, 52.2 nM.
For `CNc1ccc(-n2nc(C(=O)N(c3ccccc3)c3ccccc3)c3ccccc32)c(C(=O)N2Cc3ccccc3C[C@H]2CN)c1` [Example 140, 1-{2-[(3S)-3-(Aminomethyl)-1,2,3,4-tetrahydroisoquinoline-2-carbonyl]-4-(methylamino)phenyl}-N,N-diphenyl-1H-indazole-3-carboxamide], in that order: 1840 nM and 25 nM.
For `CN(C)c1ccc(-n2nc(C(=O)N(c3ccccc3)c3ccccc3)c3ccccc32)c(C(=O)N2Cc3ccccc3C[C@H]2CN)c1` [Example 141, 1-{2-[(3S)-3-(Aminomethyl)-1,2,3,4-tetrahydroisoquinoline-2-carbonyl]-4-(dimethylamino)phenyl}-N,N-diphenyl-1H-indazole-3-carboxamide], in that order: 2280 nM and 56.7 nM.
Take `NC[C@@H]1Cc2ccccc2CN1C(=O)c1cc(NCc2ccccc2)ccc1-n1nc(C(=O)N(c2ccccc2)c2ccccc2)c2ccccc21` [Example 142, 1-{2-[(3S)-3-(Aminomethyl)-1,2,3,4-tetrahydroisoquinoline-2-carbonyl]-4-(benzylamino)phenyl}-N,N-diphenyl-1H-indazole-3-carboxamide]: the 50% inhibitory concentration (IC50) stood at 2290 nM in experiment [1] and 70.6 nM on Bcl-2 protein.
For `CN(C)C[C@@H]1Cc2ccccc2CN1C(=O)c1ccccc1-n1cc(C(=O)N(c2ccccc2)c2ccc(O)cc2)c2ccccc21` [Example 143, 1-{2-[(3S)-3-[(Dimethylamino)methyl]-1,2,3,4-tetrahydroisoquinoline-2-carbonyl]phenyl}-N-(4-hydroxyphenyl)-N-phenyl-1H-indole-3-carboxamide], in that order: 533 nM and 71.5 nM.
Take `NC[C@@H]1Cc2ccccc2CN1C(=O)c1cc(NC(=O)COc2ccccc2)ccc1-n1nc(C(=O)N(c2ccccc2)c2ccccc2)c2ccccc21` [Example 144, 1-{2-[(3S)-3-(Aminomethyl)-1,2,3,4-tetrahydroisoquinoline-2-carbonyl]-4-(2-phenoxyacetamido)phenyl}-N,N-diphenyl-1H-indazole-3-carboxamide]: the IC50 in experiment [1] worked out at 1380 nM; on Bcl-2 protein it was 35 nM.
Taken in the same sequence, the figures for `COc1cc(-n2cc(C(=O)N(c3ccccc3)c3ccc(O)cc3)c3ccccc32)c(C(=O)N2Cc3ccccc3C[C@H]2CN)cc1O` [Example 145, 1-{2-[(3S)-3-(Aminomethyl)-1,2,3,4-tetrahydroisoquinoline-2-carbonyl]-4-hydroxy-5-methoxyphenyl}-N-(4-hydroxyphenyl)-N-phenyl-1H-indole-3-carboxamide] were 1180 nM and 12.2 nM.
As to `COc1ccc(C(=O)N2Cc3ccccc3C[C@H]2CN)c(-n2cc(C(=O)N(c3ccccc3)c3ccc(O)cc3)c3ccccc32)c1` [Example 146, 1-{2-[(3S)-3-(Aminomethyl)-1,2,3,4-tetrahydroisoquinoline-2-carbonyl]-5-methoxyphenyl}-N-(4-hydroxyphenyl)-N-phenyl-1H-indole-3-carboxamide], the IC50 turned out to be 346 nM in experiment [1] and 17.2 nM on Bcl-2 protein.
Taken in the same sequence, the figures for `COc1ccc(C(=O)N2Cc3ccccc3C[C@H]2CN)c(-n2cc(C(=O)N(c3ccccc3)c3ccccc3)c3ccccc32)c1` [Example 147, 1-{2-[(3S)-3-(Aminomethyl)-1,2,3,4-tetrahydroisoquinoline-2-carbonyl]-5-methoxyphenyl}-N,N-diphenyl-1H-indole-3-carboxamide] were 966 nM and 22.5 nM.
Take `NC[C@@H]1Cc2ccccc2CN1C(=O)c1ccccc1-n1nc(C(=O)N(c2ccccc2)c2ccc(O)cc2)c2ccccc21` [Example 148, 1-{2-[(3S)-3-(Aminomethyl)-1,2,3,4-tetrahydroisoquinoline-2-carbonyl]-phenyl}-N-(4-hydroxyphenyl)-N-phenyl-1H-indazole-3-carboxamide]: the IC50 in experiment [1] amounted to 1170 nM; at Bcl-2 protein, 28.3 nM.
Turning to `NC[C@@H]1Cc2ccccc2CN1C(=O)c1cc(NC(=O)CSc2ccccc2)ccc1-n1nc(C(=O)N(c2ccccc2)c2ccccc2)c2ccccc21` [Example 149, 1-{2-[(3S)-3-(Aminomethyl)-1,2,3,4-tetrahydroisoquinoline-2-carbonyl]-4-[2-(phenylsulphanyl)acetamido]phenyl}-N,N-diphenyl-1H-indazole-3-carboxamide], the IC50 amounted to 340 nM in experiment [1] and 21.6 nM at Bcl-2 protein.
For `COc1ccc(C(=O)N2Cc3ccccc3C[C@H]2CN)c(-n2nc(C(=O)N(c3ccccc3)c3ccccc3)c3ccccc32)c1` [Example 150, 1-{2-[(3S)-3-(Aminomethyl)-1,2,3,4-tetrahydroisoquinoline-2-carbonyl]-5-methoxyphenyl}-N,N-diphenyl-1H-indazole-3-carboxamide], in that order: 1320 nM and 51 nM.
Taken in the same sequence, the figures for `COc1cc(-n2nc(C(=O)N(c3ccccc3)c3ccccc3)c3ccccc32)c(C(=O)N2Cc3ccccc3C[C@H]2CN)cc1N` [Example 152, 1-{4-Amino-2-[(3S)-3-(aminomethyl)-1,2,3,4-tetrahydroisoquinoline-2-carbonyl]-5-methoxyphenyl}-N,N-diphenyl-1H-indazole-3-carboxamide] were 2160 nM and 218 nM.
As for `NC[C@@H]1Cc2ccccc2CN1C(=O)c1cc2c(cc1-n1cc(C(=O)N(c3ccccc3)c3ccc(O)cc3)c3ccccc31)OCO2` [Example 153, 1-{6-[(3S)-3-(Aminomethyl)-1,2,3,4-tetrahydroisoquinoline-2-carbonyl]-2H-1,3-benzodioxol-5-yl}-N-(4-hydroxyphenyl)-N-phenyl-1H-indole-3-carboxamide], the IC50 came to 237 nM in experiment [1] and 286 nM at Bcl-2 protein.
Take `CN1CCN(C[C@@H]2Cc3ccccc3CN2C(=O)c2ccccc2-n2cc(C(=O)N(c3ccccc3)c3ccc(O)cc3)c3ccccc32)CC1` [Example 155, N-(4-Hydroxyphenyl)-1-{2-[(3S)-3-[(4-methylpiperazin-1-yl)methyl]-1,2,3,4-tetrahydroisoquinoline-2-carbonyl}phenyl]-N-phenyl-1H-indole-3-carboxamide]: the half-maximal inhibitory concentration (IC50) turned out to be 246 nM in experiment [1] and 13.2 nM at Bcl-2 protein.
For `NC[C@@H]1Cc2ccccc2CN1C(=O)c1ccc(Cl)cc1-n1cc(C(=O)N(c2ccccc2)c2ccc(O)cc2)c2ccccc21` [Example 156, 1-{2-[(3S)-3-(Aminomethyl)-1,2,3,4-tetrahydroisoquinoline-2-carbonyl]-5-chlorophenyl}-N-(4-hydroxyphenyl)-N-phenyl-1H-indole-3-carboxamide], in that order: 450 nM and 11.7 nM.
For `NC[C@@H]1Cc2ccccc2CN1C(=O)c1cc(NC(=O)CSc2ccccc2)ccc1-n1cc(C(=O)N(c2ccccc2)c2ccc(O)cc2)c2ccccc21` [Example 157, 1-{2-[(3S)-3-(Aminomethyl)-1,2,3,4-tetrahydroisoquinoline-2-carbonyl]-4-[2-(phenylsulphanyl)acetamido]phenyl}-N-(4-hydroxyphenyl)-N-phenyl-1H-indole-3-carboxamide], in that order: 487 nM and 16.1 nM.
Take `CC(C)CC1Oc2cc(C(=O)N3Cc4ccccc4C[C@H]3CN)c(-n3cc(C(=O)N(c4ccccc4)c4ccc(O)cc4)c4ccccc43)cc2O1` (stereo partly drawn) [Example 158, 1-{6-[(3S)-3-(Aminomethyl)-1,2,3,4-tetrahydroisoquinoline-2-carbonyl]-2-(2-methylpropyl)-2H-1,3-benzodioxol-5-yl}-N-(4-hydroxyphenyl)-N-phenyl-1H-indole-3-carboxamide]: the figures for the IC50 (in experiment [1]; at Bcl-2 protein) were 834 nM and 54.1 nM, respectively.
For `CN1CCN(C[C@@H]2Cc3ccccc3CN2C(=O)c2ccc(Cl)cc2-n2cc(C(=O)N(c3ccccc3)c3ccc(O)cc3)c3ccccc32)CC1` [Example 159, 1-{5-Chloro-2-[(3S)-3-[(4-methylpiperazin-1-yl)methyl]-1,2,3,4-tetrahydroisoquinoline-2-carbonyl]phenyl}-N-(4-hydroxyphenyl)-N-phenyl-1H-indole-3-carboxamide], in that order: 191 nM and 10.2 nM.
Taken in the same sequence, the figures for `CN1CCN(C[C@@H]2Cc3ccccc3CN2C(=O)c2cc(NC(=O)CSc3ccccc3)ccc2-n2cc(C(=O)N(c3ccccc3)c3ccc(O)cc3)c3ccccc32)CC1` [Example 163, N-(4-Hydroxyphenyl)-1-{2-[(3S)-3-[(4-methylpiperazin-1-yl)methyl]-1,2,3,4-tetrahydroisoquinoline-2-carbonyl]-4-[2-(phenylsulphanyl)acetamido]phenyl}-N-phenyl-1H-indole-3-carboxamide] were 292 nM and 22.8 nM.
For the molecule `CN1CCN(C[C@@H]2Cc3ccccc3CN2C(=O)c2cc3c(cc2-n2cc(C(=O)N(c4ccccc4)c4ccc(O)cc4)c4ccccc42)OCO3)CC1` [Example 164, N-(4-Hydroxyphenyl)-1-{6-[(3S)-3-[(4-methylpiperazin-1-yl)methyl]-1,2,3,4-tetrahydroisoquinoline-2-carbonyl]-2H-1,3-benzodioxol-5-yl}-N-phenyl-1H-indole-3-carboxamide dihydrochloride], the half-inhibitory concentration (IC50) in experiment [1] is 132 nM; on Bcl-2 protein, 7.8 nM.
Consider `COc1cc(-n2cc(C(=O)N(c3ccccc3)c3ccc(O)cc3)c3ccccc32)c(C(=O)N2Cc3ccccc3C[C@H]2CN2CCN(C)CC2)cc1O` [Example 165, 1-{4-Hydroxy-5-methoxy-2-[(3S)-3-[(4-methylpiperazin-1-yl)methyl]-1,2,3,4-tetrahydroisoquinoline-2-carbonyl}phenyl]-N-(4-hydroxyphenyl)-N-phenyl-1H-indole-3-carboxamide dihydrochloride], for which the IC50 in experiment [1] amounted to 179 nM; at Bcl-2 protein it was 3.2 nM.

Source of the values: patent US9765056B2, “Indole and pyrrole compounds, a process for their preparation and pharmaceutical compositions containing them” (LES LABORATOIRES SERVIER, priority 2013, dated 2017).
